Legend:
Assay in all cases: kinase selectivity panel
Assay type in all cases: biochemical
[1] = biological target: T1, Itk (Homo sapiens, UniProt Q08881); settings: read-out: percentage of control activity (POC), Itk
T1 construct: purchased Eurofins Pharma Discovery Services (KinaseProfiler; Cerep BioPrint panel)
T1 sequence (Q08881 1-620): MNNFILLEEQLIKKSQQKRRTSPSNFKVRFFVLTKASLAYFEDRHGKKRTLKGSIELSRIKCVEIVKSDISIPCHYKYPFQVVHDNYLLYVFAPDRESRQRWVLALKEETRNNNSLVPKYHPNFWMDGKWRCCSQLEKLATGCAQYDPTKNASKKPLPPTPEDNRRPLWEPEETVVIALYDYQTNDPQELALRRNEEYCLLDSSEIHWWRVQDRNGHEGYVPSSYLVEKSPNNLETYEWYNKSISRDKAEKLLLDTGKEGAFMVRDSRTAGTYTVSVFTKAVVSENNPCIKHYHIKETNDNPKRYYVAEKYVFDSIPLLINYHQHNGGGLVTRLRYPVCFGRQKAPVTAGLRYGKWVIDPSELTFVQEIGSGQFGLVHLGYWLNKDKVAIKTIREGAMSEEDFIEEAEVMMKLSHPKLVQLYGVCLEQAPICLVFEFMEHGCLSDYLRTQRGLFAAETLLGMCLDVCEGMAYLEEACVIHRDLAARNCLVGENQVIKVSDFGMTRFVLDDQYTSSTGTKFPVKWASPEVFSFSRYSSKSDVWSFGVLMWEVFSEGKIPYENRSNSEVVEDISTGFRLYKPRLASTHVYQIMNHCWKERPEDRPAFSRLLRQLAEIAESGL
In short: (§1)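 The compound is screened at 10 μM in duplicate against 125 representative kinases. Selected activities are followed up with a nine-concentration duplicate titration to give IC50.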

[2] = biological target: T2, FGFR4 (Homo sapiens, UniProt P22455); settings: read-out: percentage of control activity (POC), FGFR4
T2 construct: purchased Eurofins Pharma Discovery Services (KinaseProfiler; Cerep BioPrint panel)
T2 sequence (P22455 22-802): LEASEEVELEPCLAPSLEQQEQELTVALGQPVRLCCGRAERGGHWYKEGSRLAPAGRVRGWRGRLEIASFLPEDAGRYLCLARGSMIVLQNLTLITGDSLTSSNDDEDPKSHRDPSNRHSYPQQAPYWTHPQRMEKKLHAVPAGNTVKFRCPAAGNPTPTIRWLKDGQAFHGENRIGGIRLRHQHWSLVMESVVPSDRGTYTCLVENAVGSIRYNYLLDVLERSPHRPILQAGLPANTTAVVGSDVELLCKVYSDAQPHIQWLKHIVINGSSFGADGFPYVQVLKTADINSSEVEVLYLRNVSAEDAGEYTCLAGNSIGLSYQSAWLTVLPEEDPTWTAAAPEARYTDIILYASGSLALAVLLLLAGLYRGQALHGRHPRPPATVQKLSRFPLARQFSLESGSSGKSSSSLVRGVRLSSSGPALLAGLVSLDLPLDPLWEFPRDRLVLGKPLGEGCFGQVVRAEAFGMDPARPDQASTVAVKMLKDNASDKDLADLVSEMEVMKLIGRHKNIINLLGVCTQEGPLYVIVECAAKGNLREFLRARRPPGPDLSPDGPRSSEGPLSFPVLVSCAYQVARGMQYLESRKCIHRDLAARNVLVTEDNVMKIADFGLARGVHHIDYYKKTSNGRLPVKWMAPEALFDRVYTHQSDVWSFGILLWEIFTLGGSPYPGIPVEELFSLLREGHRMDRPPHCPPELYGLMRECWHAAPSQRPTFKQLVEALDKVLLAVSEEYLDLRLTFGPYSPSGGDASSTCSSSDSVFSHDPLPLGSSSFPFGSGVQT
In short: as §1

[3] = biological target: T3, MAPK2 (Homo sapiens, UniProt P28482); settings: read-out: percentage of control activity (POC), MAPK2
T3 construct: purchased Eurofins Pharma Discovery Services (KinaseProfiler; Cerep BioPrint panel)
T3 sequence (P28482 whole entry): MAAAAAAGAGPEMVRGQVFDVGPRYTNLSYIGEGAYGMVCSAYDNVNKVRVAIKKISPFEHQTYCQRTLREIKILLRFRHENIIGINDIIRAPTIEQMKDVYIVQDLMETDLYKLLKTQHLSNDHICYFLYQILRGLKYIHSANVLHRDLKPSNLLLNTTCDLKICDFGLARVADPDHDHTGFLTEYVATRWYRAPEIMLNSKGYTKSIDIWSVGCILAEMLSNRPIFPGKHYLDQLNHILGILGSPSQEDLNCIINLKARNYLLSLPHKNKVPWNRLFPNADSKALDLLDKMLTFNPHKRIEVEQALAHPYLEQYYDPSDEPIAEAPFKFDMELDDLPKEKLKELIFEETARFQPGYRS
In short: as §1

[4] = biological target: T4, Rse (Homo sapiens, UniProt Q06418); settings: read-out: percentage of control activity (POC), Rse
T4 construct: purchased Eurofins Pharma Discovery Services (KinaseProfiler; Cerep BioPrint panel)
T4 sequence (Q06418 41-890): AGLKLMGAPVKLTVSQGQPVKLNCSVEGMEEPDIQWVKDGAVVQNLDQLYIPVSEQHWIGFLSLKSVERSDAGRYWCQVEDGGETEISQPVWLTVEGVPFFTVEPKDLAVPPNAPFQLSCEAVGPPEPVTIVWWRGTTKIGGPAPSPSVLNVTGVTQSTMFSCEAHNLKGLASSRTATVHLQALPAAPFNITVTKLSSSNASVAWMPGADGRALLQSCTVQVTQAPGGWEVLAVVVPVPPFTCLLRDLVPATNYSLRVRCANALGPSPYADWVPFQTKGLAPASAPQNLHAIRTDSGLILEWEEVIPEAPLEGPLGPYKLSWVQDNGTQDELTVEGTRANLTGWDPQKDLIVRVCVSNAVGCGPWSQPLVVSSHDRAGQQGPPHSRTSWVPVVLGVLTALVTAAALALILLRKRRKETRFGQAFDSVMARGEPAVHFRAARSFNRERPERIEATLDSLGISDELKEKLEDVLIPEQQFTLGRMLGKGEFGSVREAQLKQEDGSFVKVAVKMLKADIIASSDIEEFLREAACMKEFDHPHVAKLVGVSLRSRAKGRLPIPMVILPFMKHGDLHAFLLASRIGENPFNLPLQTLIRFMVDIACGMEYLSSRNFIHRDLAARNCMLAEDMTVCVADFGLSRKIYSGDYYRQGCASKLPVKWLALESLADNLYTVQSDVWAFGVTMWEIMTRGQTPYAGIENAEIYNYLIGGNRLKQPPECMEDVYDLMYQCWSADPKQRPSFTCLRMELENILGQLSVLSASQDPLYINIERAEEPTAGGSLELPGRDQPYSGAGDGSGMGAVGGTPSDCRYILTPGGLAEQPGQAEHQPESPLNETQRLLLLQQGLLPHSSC
In short: as §1

[5] = biological target: T5, Flt4 (Homo sapiens, UniProt P35916); settings: for remaining activity at 10 µM: read-out: percentage of control activity (POC), Flt4
T5 construct: Eurofins Pharma Discovery Services (contract assay service)
T5 sequence (P35916 25-1363, species assumed): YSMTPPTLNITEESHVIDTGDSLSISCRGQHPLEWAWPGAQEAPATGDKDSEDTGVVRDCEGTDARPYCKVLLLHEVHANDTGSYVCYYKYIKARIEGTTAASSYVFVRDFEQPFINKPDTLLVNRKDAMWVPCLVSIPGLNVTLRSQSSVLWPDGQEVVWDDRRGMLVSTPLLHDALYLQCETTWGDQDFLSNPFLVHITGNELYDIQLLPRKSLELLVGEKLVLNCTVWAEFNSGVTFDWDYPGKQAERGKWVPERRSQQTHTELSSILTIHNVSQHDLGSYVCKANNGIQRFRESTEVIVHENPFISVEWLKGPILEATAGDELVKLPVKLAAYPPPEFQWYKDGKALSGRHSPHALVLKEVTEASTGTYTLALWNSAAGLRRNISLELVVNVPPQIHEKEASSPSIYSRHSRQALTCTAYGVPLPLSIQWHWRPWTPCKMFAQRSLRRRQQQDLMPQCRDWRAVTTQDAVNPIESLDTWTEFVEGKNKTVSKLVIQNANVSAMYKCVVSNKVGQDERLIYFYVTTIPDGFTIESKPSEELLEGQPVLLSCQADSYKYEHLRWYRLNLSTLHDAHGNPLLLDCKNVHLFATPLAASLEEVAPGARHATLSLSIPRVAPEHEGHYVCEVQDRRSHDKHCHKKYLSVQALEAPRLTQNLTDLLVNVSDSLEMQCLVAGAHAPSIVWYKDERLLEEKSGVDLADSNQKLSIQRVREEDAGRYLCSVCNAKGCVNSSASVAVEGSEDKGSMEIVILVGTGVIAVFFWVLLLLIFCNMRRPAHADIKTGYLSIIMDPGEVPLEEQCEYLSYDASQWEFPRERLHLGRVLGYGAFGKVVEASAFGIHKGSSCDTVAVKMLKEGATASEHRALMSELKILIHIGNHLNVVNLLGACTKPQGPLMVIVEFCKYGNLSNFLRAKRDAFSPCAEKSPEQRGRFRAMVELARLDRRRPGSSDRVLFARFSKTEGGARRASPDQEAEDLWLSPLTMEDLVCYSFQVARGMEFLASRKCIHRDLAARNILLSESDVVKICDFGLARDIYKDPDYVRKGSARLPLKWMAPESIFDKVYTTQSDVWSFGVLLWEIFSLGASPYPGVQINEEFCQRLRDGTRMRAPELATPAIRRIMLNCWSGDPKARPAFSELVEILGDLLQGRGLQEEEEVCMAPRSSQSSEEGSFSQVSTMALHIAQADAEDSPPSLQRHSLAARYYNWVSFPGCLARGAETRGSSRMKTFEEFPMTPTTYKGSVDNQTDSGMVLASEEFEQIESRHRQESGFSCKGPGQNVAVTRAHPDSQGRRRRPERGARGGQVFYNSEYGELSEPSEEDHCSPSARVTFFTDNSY
In short: as §1

[6] = biological target: T6, PI3K (p120g) (Homo sapiens, UniProt P48736); settings: for remaining activity at 10 µM: read-out: percentage of control activity (POC), PI3K (p120g)
T6 construct: Eurofins Pharma Discovery Services (contract assay service)
T6 sequence (P48736 whole entry): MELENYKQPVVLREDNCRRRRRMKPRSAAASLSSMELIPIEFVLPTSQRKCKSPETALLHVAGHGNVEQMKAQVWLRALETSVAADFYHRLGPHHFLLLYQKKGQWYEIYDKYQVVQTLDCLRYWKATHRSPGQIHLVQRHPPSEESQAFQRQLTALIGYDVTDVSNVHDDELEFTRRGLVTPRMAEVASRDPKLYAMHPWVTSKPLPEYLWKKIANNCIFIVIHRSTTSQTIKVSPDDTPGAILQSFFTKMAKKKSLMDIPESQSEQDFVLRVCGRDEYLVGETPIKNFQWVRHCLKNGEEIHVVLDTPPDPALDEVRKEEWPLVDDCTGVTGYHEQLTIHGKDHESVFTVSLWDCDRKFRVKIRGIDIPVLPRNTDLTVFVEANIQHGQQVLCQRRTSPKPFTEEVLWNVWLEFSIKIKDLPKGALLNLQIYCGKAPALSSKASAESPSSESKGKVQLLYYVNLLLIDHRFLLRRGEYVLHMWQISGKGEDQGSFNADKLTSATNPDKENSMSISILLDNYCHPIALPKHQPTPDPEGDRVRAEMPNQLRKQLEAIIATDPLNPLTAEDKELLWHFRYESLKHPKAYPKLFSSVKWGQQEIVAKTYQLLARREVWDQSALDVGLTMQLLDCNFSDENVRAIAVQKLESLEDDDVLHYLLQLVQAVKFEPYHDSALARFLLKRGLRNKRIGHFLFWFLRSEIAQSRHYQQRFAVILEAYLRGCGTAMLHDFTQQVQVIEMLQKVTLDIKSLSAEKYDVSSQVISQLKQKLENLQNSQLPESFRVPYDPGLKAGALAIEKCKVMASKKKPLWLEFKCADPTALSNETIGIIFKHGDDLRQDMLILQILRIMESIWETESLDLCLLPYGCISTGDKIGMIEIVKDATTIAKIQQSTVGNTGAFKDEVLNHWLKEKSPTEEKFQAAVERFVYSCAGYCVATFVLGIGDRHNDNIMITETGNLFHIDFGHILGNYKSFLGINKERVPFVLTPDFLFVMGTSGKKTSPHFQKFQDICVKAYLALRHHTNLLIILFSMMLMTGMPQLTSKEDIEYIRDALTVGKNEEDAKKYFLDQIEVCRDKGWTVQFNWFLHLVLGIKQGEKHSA
In short: as §1

[7] = biological target: T7, Fer (Homo sapiens, UniProt P16591); settings: read-out: percentage of control activity (POC), Fer
T7 construct: purchased Eurofins Pharma Discovery Services (KinaseProfiler; Cerep BioPrint panel)
T7 sequence (P16591 whole entry): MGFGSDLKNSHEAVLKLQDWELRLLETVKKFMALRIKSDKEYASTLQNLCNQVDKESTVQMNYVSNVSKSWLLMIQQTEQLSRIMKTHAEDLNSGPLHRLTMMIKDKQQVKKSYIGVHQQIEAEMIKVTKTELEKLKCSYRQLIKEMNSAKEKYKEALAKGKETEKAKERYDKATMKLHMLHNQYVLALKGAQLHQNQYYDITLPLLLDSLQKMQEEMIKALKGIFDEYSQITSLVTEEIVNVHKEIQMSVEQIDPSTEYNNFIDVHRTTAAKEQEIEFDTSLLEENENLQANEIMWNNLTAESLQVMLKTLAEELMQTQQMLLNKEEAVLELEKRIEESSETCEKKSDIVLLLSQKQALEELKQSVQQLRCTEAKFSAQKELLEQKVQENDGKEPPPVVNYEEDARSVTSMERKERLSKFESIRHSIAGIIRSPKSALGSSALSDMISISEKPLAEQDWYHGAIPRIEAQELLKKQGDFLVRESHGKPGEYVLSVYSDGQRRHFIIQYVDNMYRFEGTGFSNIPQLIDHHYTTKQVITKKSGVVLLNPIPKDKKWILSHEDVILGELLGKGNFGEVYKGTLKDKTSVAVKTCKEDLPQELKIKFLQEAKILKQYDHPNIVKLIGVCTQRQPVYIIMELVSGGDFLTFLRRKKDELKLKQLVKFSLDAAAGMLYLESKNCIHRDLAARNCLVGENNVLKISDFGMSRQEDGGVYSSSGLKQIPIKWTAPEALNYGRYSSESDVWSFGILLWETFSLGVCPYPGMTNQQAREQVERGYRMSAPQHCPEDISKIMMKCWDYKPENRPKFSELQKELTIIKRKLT
In short: as §1

[8] = biological target: Syk (Homo sapiens, UniProt P43405); settings: read-out: percentage of control activity (POC), Syk
In short: as §1

remaining activity at 10 µM [1] [%]	remaining activity at 10 µM [2] [%]	remaining activity at 10 µM [3] [%]	remaining activity at 10 µM [4] [%]	remaining activity at 10 µM ([5]; 10 μM) [%]	remaining activity at 10 µM ([6]; 10 μM) [%]	remaining activity at 10 µM [7] [%]	remaining activity at 10 µM [8] [%]	SMILES	inhibition at 10 µM ([5]; 10 μM, read-out: inhibition of Ftl4) [%]	IC50 ([5]; biochemical dose response, duplicate, read-out: Inhibition of indicated activity (IC50, μM): Ftl4) [µM]	inhibition at 10 µM ([6]; 10 μM, read-out: inhibition of PI3K (p120γ)) [%]	IC50 ([6]; biochemical dose response, duplicate, read-out: Inhibition of indicated activity (IC50, μM): PI3K (p120γ)) [µM]
110	88	105	109	108	92	109	95	CC(C)(C)N1CCC(c2cc(-c3ccc(F)cc3Cl)c3cc[n+]([O-])c(-c4c(Cl)cccc4Cl)c3n2)CC1 [compound 2]	–	–	–	–
103	91	97	99	78	85	102	101	Cc1ccc(C(=O)NCC2CC2)cc1-c1ccc2c(c1)NC(=O)C21CCCC1 [compound 3]	–	–	–	–

Continued, compound first:

SMILES	remaining activity at 10 µM [1] [%]	remaining activity at 10 µM [2] [%]	remaining activity at 10 µM [3] [%]	remaining activity at 10 µM [4] [%]	remaining activity at 10 µM ([5]; 10 μM) [%]	remaining activity at 10 µM ([6]; 10 μM) [%]	remaining activity at 10 µM [7] [%]	remaining activity at 10 µM [8] [%]	inhibition at 10 µM ([5]; 10 μM, read-out: inhibition of Ftl4) [%]	IC50 ([5]; biochemical dose response, duplicate, read-out: Inhibition of indicated activity (IC50, μM): Ftl4) [µM]	inhibition at 10 µM ([6]; 10 μM, read-out: inhibition of PI3K (p120γ)) [%]	IC50 ([6]; biochemical dose response, duplicate, read-out: Inhibition of indicated activity (IC50, μM): PI3K (p120γ)) [µM]
Cn1cc(-c2cccc(-c3nc(C(=O)NC4C5CC6CC4CC(O)(C6)C5)c(N)nc3N)c2)cn1 (centres unmarked) [compound 4]	109	86	97	92	20	33	99	66	80	3.13	67	4.78
CS(=O)(=O)N1CCN(c2ccc(Nc3ncc(C(N)=O)c(NC4CC4)n3)cc2)CC1 [compound 5]	3	73	49	33	0	86	14	0	–	–	–	–
COc1c(NC(=O)c2ccc(C)c(-c3nnc4c(NCC(C)(C)C)nccn34)c2)cc(C(C)(C)C)cc1NS(C)(=O)=O [compound 7, reference compound]	114	89	99	107	88	86	105	86	–	–	–	–
